Molecules are shown by their SMILES. “And” between values parts separate entries of the source, which are not always exact repeats. Identical values can stand only once.

One may read the IC50 as the concentration needed to halve the response being measured. Low readings indicate inhibition by little substance, high ones a need for much substance. A word on the Ki: it is the dissociation constant of the complex between target and ligand, obtained from inhibition or displacement.

The target of data set [1] is T1, MCR (α-methylacyl-CoA racemase from Mycobacterium tuberculosis) (Mycobacterium tuberculosis, UniProt O06543). Briefly: Jump-dilution experiment (reversibility of inhibition). Also noted: made in house. The note with it: 12-min time-course, inhibitor at 6x or 0.06x the IC50. It counts as biochemical.
Data set [2] concerns the target T1, MCR (α-methylacyl-CoA racemase from Mycobacterium tuberculosis). Briefly: Colorimetric inhibition assay, dose-response curves. Particulars: for Max % (coefficient): fitted maximum % activity; for Min % (coefficient): fitted minimum % activity; for Hillslope (coefficient): 4-parameter logistic fit; for pIC50 lower than expected based on LogP: from plot of pIC50 vs. calculated LogP.

The next data set has as its target human AMACR 1A. Particulars: cited from earlier work.
Data set [3] has as its target T1, MCR (α-methylacyl-CoA racemase from Mycobacterium tuberculosis). As to the kind of experiment: Kinetic assay (Ki and mode of inhibition, colorimetric assay). It counts as biochemical. Also noted: made in house. As for the experimental part: Data was collected as previously described using ibuprofenoyl-CoA 1 at 0, 3.2, 10, and 32 μM, 3.12 nM MCR, and 50.2 to 576 μM substrate (final concentrations) in 50 mM NaH2PO4-NaOH, 100 mM NaCl, and 1 mM EDTA, pH 7.4 and 3% (v/v) DMSO. Enzyme and inhibitor stock solutions were pre-incubated together for 10 min before initiating the assay. Rates were determined using ICEKAT ([46], [47]), with logarithmic fit of the data and correction of rates for delays between reaction initiation and first read. Data was analyzed using SigmaPlot 15.0 using Simple EK and the enzyme kinetics macro, with the correct inhibition model selected using graphs (Fig. S19, A–G) and statistical ranking of models. The determined Ki value is the mean ± SEM for three independent repeats.

Data set [4] has the same target. As to the kind of experiment: Deuterium-exchange assay (substrate α-proton exchange, 1H NMR). Also noted: made in house. Particulars: 100 μM acyl-CoA, 2.34 nM MCR, ca. 85% 2H2O, 30 °C. It counts as biochemical. As for the experimental part: Exchange of substrate α-protons was assessed using the deuterium-exchange assay as previously described ([19], [32]). Assay mixtures contained 55 ng (2.34 nM) of active or heat-inactivated MCR, 100 μM acyl-CoA, 50 mM NaH2PO4-NaOH, pH 7.4 and ca. 85% (v/v) ^2H2O in a total volume of 600 μl. Fenoprofenoyl-CoA 2 was used as a positive control. Reactions were initiated by the addition of enzyme, and reaction mixtures were incubated at 30 °C for 1 h before quenching at 55 °C for 10 min. NMR data were collected on a Bruker Avance Neo operating at 500.13 MHz for proton at 25 °C. Solvent suppression was achieved using a pre-saturation experiment. Typically, 128 transients were recorded. Data were processed using Topspin 4.0.7. Analysis of deuterium-exchange is based upon changes in intensity of either the substrate methine protons in the α-position or by the effects of the loss of those α-proton on a coupled methyl group.

For a further data set, the system named is MCR. Also noted: method as in PMID 26759836. The note with it: cited from earlier work.
The mark [5] stands for this setting: LogIC50 (coefficient), individual independent repeats 1-3, 4-parameter logistic fit of mean % activity (2 technical repeats).
[6] abbreviates: individual independent repeats 1-3.
The mark [7] stands for this setting: pIC50, mean ± SEM, n = 3, colorimetric assay, 96 μM substrate, 3.12 nM MCR, 10 min pre-incubation.

T1 sequence (O06543 whole entry): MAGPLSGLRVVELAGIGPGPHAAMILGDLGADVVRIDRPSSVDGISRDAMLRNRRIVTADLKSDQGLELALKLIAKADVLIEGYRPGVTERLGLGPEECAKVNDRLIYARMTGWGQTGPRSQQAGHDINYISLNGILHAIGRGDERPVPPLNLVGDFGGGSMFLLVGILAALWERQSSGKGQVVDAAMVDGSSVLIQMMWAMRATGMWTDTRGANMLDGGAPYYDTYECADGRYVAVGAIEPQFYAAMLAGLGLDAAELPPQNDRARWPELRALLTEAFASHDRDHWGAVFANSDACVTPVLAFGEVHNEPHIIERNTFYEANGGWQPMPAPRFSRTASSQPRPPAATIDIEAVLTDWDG

On to `CC(C)Cc1ccc(C(C)C(=O)SCCNC(=O)CCNC(=O)C(O)C(C)(C)COP(=O)(O)OP(=O)(O)OCC2OC(n3cnc4c(N)ncnc43)C(O)C2OP(=O)(O)O)cc1` (racemic) [compound 1, ±-Ibuprofenoyl-CoA], for which the reversibility of inhibition entry in data set [1] was “reversible inhibition”. Besides, the half-inhibitory concentration (IC50) in data set [2] (setting [5]) is 10.9 µM and 8.94 µM and 7.48 µM; in data set [2] (setting [7]), 8.91 µM. The “potency on MCR relative to human AMACR (fold less potent)” value in data set [2] (MCR versus human AMACR) was around 20 fold. Further, in data set [2] (setting [6]), the “Max % (coefficient)” value is 105.5482% and 98.8641% and 101.2444%. Further, in data set [2] (setting [6]), the “Min % (coefficient)” value was 2.6168% and 2.9187% and 2.6510%. Besides, the “Hillslope (coefficient)” value in data set [2] (setting [6]) is -0.9604 and -0.9180 and -0.9734. For the same compound, the Ki on human AMACR 1A (human AMACR 1A, mean ± SEM, n = 1) is 60 ± 4.78 nM; in data set [3] (individual repeats 1-3, inhibitor 0, 3.2, 10, 32 μM, 50.2 to 576 μM substrate), 3.06 µM and 2.44 µM and 3.62 µM; in data set [3] (mean ± SEM, n = 3, competitive inhibition model), 3.04 ± 0.34 µM. In data set [3] (Lineweaver-Burk plot and statistical ranking of models), the mode of inhibition entry is on record as “competitive inhibition”.

Regarding `CC(C(=O)SCCNC(=O)CCNC(=O)C(O)C(C)(C)COP(=O)(O)OP(=O)(O)OCC1OC(n2cnc3c(N)ncnc32)C(O)C1OP(=O)(O)O)c1cccc(Oc2ccccc2)c1` (racemic) [compound 2, ±-Fenoprofenoyl-CoA], the concentration for half-maximal inhibition (IC50) in data set [2] (setting [5]) was 20.4 µM and 11.7 µM and 14.2 µM. In data set [2] (setting [6]), the “Max % (coefficient)” value was 99.3868% and 110.2399% and 93.4385%; the “Min % (coefficient)” value is -1.0173% and 2.2137% and -0.7388%; the “Hillslope (coefficient)” value is -0.8331 and -0.7292 and -0.8187. For the same compound, the IC50 in data set [2] (setting [7]) is 15.1 µM. Further, the relative inhibitor potency entry with human AMACR 1A (human AMACR) was “most potent inhibitor”.

For `CC(C(=O)SCCNC(=O)CCNC(=O)C(O)C(C)(C)COP(=O)(O)OP(=O)(O)OCC1OC(n2cnc3c(N)ncnc32)C(O)C1OP(=O)(O)O)c1ccc(-c2ccccc2)c(F)c1` (racemic) [compound 4, ±-Flurbiprofenoyl-CoA], the IC50 in data set [2] (setting [5]) was 13.1 µM and 21.1 µM and 21.2 µM. Further, in data set [2] (setting [6]), the “Max % (coefficient)” value was 97.7981% and 95.9188% and 94.6575%; the “Min % (coefficient)” value was 1.7221% and 0.8368% and 2.1053%; the “Hillslope (coefficient)” value was -0.9708 and -1.0277 and -1.0055. This compound also gave an IC50 in data set [2] (setting [7]) of 18.2 µM.

With `CC(C(=O)SCCNC(=O)CCNC(=O)C(O)C(C)(C)COP(=O)(O)OP(=O)(O)OCC1OC(n2cnc3c(N)ncnc32)C(O)C1OP(=O)(O)O)c1cccc(C(=O)c2ccccc2)c1` (centres unmarked) [compound 3, S-Ketoprofenoyl-CoA], the IC50 in data set [2] (setting [5]) is 31.5 µM and 30.8 µM. Moreover, in data set [2] (setting [6]), the “Max % (coefficient)” value was 100.4116% and 96.3493% and 103.0106%; the “Min % (coefficient)” value was -9.0253% and -2.7332% and -8.7722%; the “Hillslope (coefficient)” value is -0.6349 and -0.7776 and -0.7146. Moreover, the “pIC50 lower than expected based on LogP” value in data set [2] is recorded as “approximately 0.3”. Also, the IC50 in data set [2] (setting [7]) is 31.6 µM.

As for `COc1ccc2cc(C(C)C(=O)SCCNC(=O)CCNC(=O)C(O)C(C)(C)COP(=O)(O)OP(=O)(O)OCC3OC(n4cnc5c(N)ncnc54)C(O)C3OP(=O)(O)O)ccc2c1` (centres unmarked) [compound 5, S-Naproxenoyl-CoA], in data set [2] (setting [5]), the IC50 was 19.5 µM and 15.6 µM and 15.5 µM. Also, in data set [2] (setting [6]), the “Max % (coefficient)” value was 99.5824% and 102.2413% and 102.0390%; the “Min % (coefficient)” value is -0.6400% and -0.5309% and -2.7274%; the “Hillslope (coefficient)” value is -0.7858 and -0.8072 and -0.6833. Further, in data set [2], the “pIC50 lower than expected based on LogP” value is “approximately 0.3”. The compound also had an IC50 in data set [2] (setting [7]) of 17 µM.

On to `CCCCCCCCC(C)C(=O)SCCNC(=O)CCNC(=O)[C@H](O)C(C)(C)COP(=O)(O)OP(=O)(O)OC[C@H]1O[C@@H](n2cnc3c(N)ncnc32)[C@H](O)[C@@H]1OP(=O)(O)O` (some centres unmarked) [compound 6, S-2-Methyldecanoyl-CoA], for which the IC50 in data set [2] (setting [5]) was 62.8 µM and 67.4 µM and 46.5 µM. For the same compound, in data set [2] (setting [6]), the “Max % (coefficient)” value was 104.1285% and 101.8704% and 101.0137%; the “Min % (coefficient)” value is 10.2466% and 13.4630% and 9.4607%; the “Hillslope (coefficient)” value is -1.5837 and -2.4923 and -1.4587. The compound further had a half-inhibitory concentration (IC50) in data set [2] (setting [7]) of 58.9 µM.

Regarding `CCCCCCCCCC(=O)SCCNC(=O)CCNC(=O)C(O)C(C)(C)COP(=O)(O)OP(=O)(O)OCC1OC(n2cnc3c(N)ncnc32)C(O)C1OP(=O)(O)O` (centres unmarked) [compound 7, Decanoyl-CoA], the IC50 in data set [2] (setting [7]) was around 100 µM.

With `CCCCCCCC(=O)SCCNC(=O)CCNC(=O)C(O)C(C)(C)COP(=O)(O)OP(=O)(O)OCC1OC(n2cnc3c(N)ncnc32)C(O)C1OP(=O)(O)O` (centres unmarked) [compound 8, Octanoyl-CoA], in data set [2] (setting [7]), the IC50 was around 100 µM.

Consider `CCCCCC(=O)SCCNC(=O)CCNC(=O)C(O)C(C)(C)COP(=O)(O)OP(=O)(O)OCC1OC(n2cnc3c(N)ncnc32)C(O)C1OP(=O)(O)O` (centres unmarked) [compound 9, Hexanoyl-CoA], for which the IC50 in data set [2] (setting [7]) was around 316 µM.

In data set [2] (setting [7]), `CCCC(=O)SCCNC(=O)CCNC(=O)C(O)C(C)(C)COP(=O)(O)OP(=O)(O)OCC1OC(n2cnc3c(N)ncnc32)C(O)C1OP(=O)(O)O` (centres unmarked) [compound 10, n-Butanoyl-CoA] gave an IC50 of around 562 µM.

Consider `CC(=O)SCCNC(=O)CCNC(=O)C(O)C(C)(C)COP(=O)(O)OP(=O)(O)OCC1OC(n2cnc3c(N)ncnc32)C(O)C1OP(=O)(O)O` (centres unmarked) [compound 11, Acetyl-CoA], for which the IC50 in data set [2] (setting [7]) is around 1000 µM.

As to `CC(C)C(=O)SCCNC(=O)CCNC(=O)C(O)C(C)(C)COP(=O)(O)OP(=O)(O)OCC1OC(n2cnc3c(N)ncnc32)C(O)C1OP(=O)(O)O` (centres unmarked) [compound 12, Isobutanoyl-CoA], in data set [2] (setting [7]), the IC50 was around 1000 µM. In data set [4], the α-proton exchange result is on record as “significant α-proton exchange”.

As for `CC(C)(COP(=O)(O)OP(=O)(O)OC[C@H]1O[C@@H](n2cnc3c(N)ncnc32)[C@H](O)[C@@H]1OP(=O)(O)O)[C@@H](O)C(=O)NCCC(=O)NCCSC(=O)C(c1ccccc1)c1ccccc1` [diphenylacetyl-CoA], the α-proton exchange entry with MCR was “did not undergo α-proton exchange”.

The record behind these values is paper PMC12246613, “Molecular basis of acyl-CoA ester recognition by α-methylacyl-CoA racemase from Mycobacterium tuberculosis” (The Journal of Biological Chemistry, 2025).
